Read-outs that look alike come from different tables or passages of the source.
Experiments:
Details in all cases: in vivo
[1] = system: bentgrass (breed: pencross); experiment: Test Example 7: pot test, copper phthalocyanine or Prussian Blue applied 1 day before flazasulfuron
Procedure: (§1) On 13th day after the treatment with flazasulfuron, the state of growth of bentgrass was visually observed and evaluated in accordance with growth inhibition rate (%)=0 (equivalent to the non-treated area) to 100 (complete kill), and thereby the results shown in Table 1 were obtained. Further, the test was carried out in duplicate.
(§2) 1/1,000,000 ha pots were prepared, as the present invention area, comparative area and non-treated area, soil was put into them, and bentgrass (breed: pencross) in sod state was planted thereon. After the bentgrass root-took on soil, a spray liquid was prepared by diluting copper phthalocyanine or Prussian Blue with water to 1,000 times or 500 times, and the bentgrass in the present invention area was subjected to foliar treatment with the spray liquid in an amount of about 1,000 L/ha by a small spray gun. After 1 day, a spray liquid was prepared by diluting a predetermined amount (corresponding to flazasulfuron: 5 g a.i./ha) of SHIBAGEN DF (tradename, the same as in Test Example 1) with water containing 0.02 wt % of Kusa-rino (tradename, the same as in Test Example 1), and the bentgrass in the present invention area and comparative area were subjected to foliar treatment with the spray liquid in an amount of about 2,000 L/ha by a small spray gun.
On 8th day after the treatment with flazasulfuron, the state of growth of bentgrass was evaluated in the same manner as in Test Example 1, and thereby the results shown in Table7 were obtained. Further, the test was carried out in duplicate.

[2] = system: bentgrass (breed: pencross); experiment: Test Example 4: ground plot test, TurfGreen BG applied 7 days after flazasulfuron
Procedure: as §1
Among bentgrass (breed: pencross) planted on ground in sod state in 0.5 m^2 (5.0×10^−5 ha, 1 m×0.5 m) of the present invention area, comparative area and non-treated area, the bentgrasses in the present invention area and comparative area were subjected to foliar treatment with a spray liquid prepared by diluting a predetermined amount (corresponding to flazasulfuron: 6.25 g a.i./ha) of SHIBAGEN DF (tradename, the same as in Test Example 1) with water containing 0.02 wt % of Kusa-rino (tradename, the same as in Test Example 1) in an amount of about 2,000 L/ha by a hand portable pump sprayer. […]
Prior to the treatment with TurfGreen BG or on 7th day after the treatment with TurfGreen BG, the state of growth of bentgrass was evaluated in the same manner as in Test Example 1, and thereby the results shown in Table 4 were obtained. […]

[3] = system: bentgrass (breed: pencross); experiment: Test Example 1: pot test, TurfGreen BG applied 7 days before flazasulfuron
Procedure: 1/300,000 ha pots were prepared, as the present invention area, comparative area and non-treated area, soil was put into them, and bentgrass (breed: pencross) in sod state (state of mat) was planted thereon. With respect to the bentgrass in the present invention area, after the bentgrass root-took on soil, a spray liquid was prepared by diluting a colorant for turfgrass (tradename: TurfGreen BG (containing chlorinated copper phthalocyanine), manufactured by Nisso Green Co., Ltd.) with water to 50 times, and the bentgrass was subjected to foliar treatment with the spray liquid in an amount of about 2,000 L/ha by a small spray gun. […]
On 13th day after the treatment with flazasulfuron, the state of growth of bentgrass was visually observed and evaluated in accordance with growth inhibition rate (%)=0 (equivalent to the non-treated area) to 100 (complete kill), and thereby the results shown in Table 1 were obtained. […]

[4] = system: bentgrass (breed: pencross); experiment: Test Example 3: ground plot test, TurfGreen BG applied 1 or 3 days before flazasulfuron
Procedure: as §1
(§3) Among bentgrass (breed: pencross) planted in sod state on ground in 0.5 m^2 (5.0×10^−5 ha, 1 m×0.5 m) in the present invention area A, the present invention area B, comparative area and non-treated area, the bentgrass in the present invention area A, the present invention area B and comparative area were subjected to foliar treatment with a spray liquid prepared by diluting a predetermined amount (corresponding to flazasulfuron: 6.25 g a.i./ha) of SHIBAGEN DF (tradename, the same as in Test Example 1) with water containing 0.02 wt % of Kusa-rino (tradename, the same as in Test Example 1) in an amount of about 2,000 L/ha by a hand portable pump sprayer. […]
On 14th day after the treatment with flazasulfuron, the state of growth of the bentgrass was evaluated in the same manner as in Test Example 1, and thereby the results shown in Table 3 were obtained. […]

[5] = system: bentgrass (breed: pencross)
Procedure: as §1
as §2, with “Pigment Green 7” for “copper phthalocyanine or Prussian Blue”, “125” for “1,000 times or 500”, “10” for “5”
On 7th day after the treatment with flazasulfuron, the state of growth of bentgrass was evaluated in the same manner as in Test Example 1, and thereby the results shown in Table 9 were obtained. Further, the test was carried out in triplicate.

[6] = system: bentgrass (breed: pencross); experiment: Test Example 8: pot test, Prussian Blue applied 5 days after flazasulfuron
Procedure: as §1
as §2, with “soil,” for “soil, a spray liquid was prepared by diluting copper phthalocyanine or Prussian Blue with water to 1,000 times or 500 times, and the bentgrass in the present invention area was subjected to foliar treatment with the spray liquid in an amount of about 1,000 L/ha by a small spray gun. After 1 day,”, “gun. […]” for “gun.”
On 7th day after the treatment with Prussian Blue, the state of growth of bentgrass was evaluated in the same manner as in Test Example 1, and thereby the results shown in Table 8 were obtained. […]

[7] = system: bentgrass (breed: pencross); experiment: Test Example 2: pot test, TurfGreen BG applied 1 day after flazasulfuron
Procedure: as §1
as §2, with “With respect” for “After the bentgrass root-took on soil, a spray liquid was prepared by diluting copper phthalocyanine or Prussian Blue with water”, “to” for “to 1,000 times or 500 times, and”, “and comparative area, after” for “was subjected to foliar treatment with”, “bentgrass root-took on soil,” for “spray liquid in an amount of about 1,000 L/ha by a small spray gun. After 1 day,”, “gun. […]” for “gun.”
On 7th day after the treatment with TurfGreen BG, the state of growth of bentgrass was evaluated in the same manner as in Test Example 1, and thereby the results shown in Table 2 were obtained. […]

[8] = system: bentgrass (breed: pencross); experiment: Test Example 6: ground plot test, FULLGREEN S applied 1 day before or after flazasulfuron
Procedure: as §1
as §3, with “planted on ground” for “planted”, “state” for “state on ground”, “m) of” for “m) in”, “a small spray gun.” for “a hand portable pump sprayer.”
On 7th day after the treatment with flazasulfuron, the state of growth of bentgrass was evaluated in the same manner as in Test Example 1, and thereby the results shown in Table 6 were obtained. […]

[9] = system: bentgrass (breed: pencross); experiment: Test Example 5: pot test, colorants applied 1 day before flazasulfuron
Procedure: as §1
1/1,000,000 ha pots were prepared, as the present invention area, comparative area and non-treated area, soil was put into them, and bentgrass (breed: pencross) in sod state was planted thereon. After the bentgrass root-took on soil, a spray liquid was prepared by diluting a colorant for turfgrass (tradename: Green Way (pigment containing metal ions), manufactured by Otsuka Chemical Co., Ltd.), (tradename: Green Way Sayaka (pigment containing metal ions), manufactured by Otsuka Chemical Co., Ltd.) or (tradename: Clear Green L (copper phthalocyanine), manufactured by Ohkawaya Co., Ltd.) with water to 50 times, and the bentgrass in the present invention area was subjected to foliar treatment with the spray liquid in an amount of about 2,000 L/ha by a small spray gun. […]
On 7th day after the treatment with flazasulfuron, the state of growth of bentgrass was evaluated in the same manner as in Test Example 1, and thereby the results shown in Table 5 were obtained. […]

Molecule | State of growth of bentgrass, Growth inhibition rate (%) [1] | phytotoxicity due to flazasulfuron, compared with comparative area [1] | State of growth of bentgrass, Growth inhibition rate (%) [2] | State of growth of bentgrass, Growth inhibition rate (%) [3] | State of growth of bentgrass, Growth inhibition rate (%) [4] | State of growth of bentgrass, Growth inhibition rate (%) [5] | State of growth of bentgrass, Growth inhibition rate (%) [6] | State of growth of bentgrass, Growth inhibition rate (%) [7] | State of growth of bentgrass, Growth inhibition rate (%) [8] | State of growth of bentgrass, Growth inhibition rate (%) [9] | phytotoxicity due to flazasulfuron, compared with comparative area [5]
[Cu+2].c1ccc2c(c1)-c1nc-2nc2[n-]c(nc3nc(nc4[n-]c(n1)c1ccccc41)-c1ccccc1-3)c1ccccc21 [copper phthalocyanine] | 40% | reduced |  |  |  |  |  |  |  |  | 
COc1cc(OC)nc(NC(=O)NS(=O)(=O)c2ncccc2C(F)(F)F)n1 [flazasulfuron] | 55% |  | 30% | 50% | 40% | 56% | 54% | 48% | 31% | 53% | 
Pigment Green 7 |  |  |  |  |  | 50% |  |  |  |  | reduced

Source: US20120198764A1, “METHOD FOR REDUCING PHYTOTOXICITY” (Ishihara Sangyo Kaisha, Ltd., priority 2009, published 2012)
